Results reported in article PMC7362284, “Pharmacokinetic and Lipidomic Assessment of the In Vivo Effects of Parishin A-Isorhynchophylline in Rat Migraine Models” (Journal of Analytical Methods in Chemistry, 2020).
Like-named read-outs stand apart in the source and are kept apart here.

Assay: Pharmacokinetic study in nitroglycerin-induced migraine model rats (plasma, HPLC-MS/MS)
Assay type: in vivo, rat
Conditions: for CL/F / MRT last / MRT inf / Vd/F / half-life: female, Sprague-Dawley, po; for CL/F: read-out: CL z/F (converted); for MRT last: read-out: MRT (0 − t); for MRT inf: read-out: MRT (0 − ∞); for Vd/F: read-out: V z/F; for half-life: read-out: t1/2z (converted); for clearance rate (CL z/F), administration-alone group higher than the coadministration group: single administration versus PI coadministration
Procedure: Healthy Sprague-Dawley (SD) female rats weighing 180 g ± 20 were provided by Hunan SJA Laboratory Animal Co., Ltd. (animal license number: SCXK (Xiang) 2016-0002). Rats underwent adaptive feeding for one week and were fasted for 12 h. Rats had open access to water throughout the study. For pharmacokinetic analysis, 18 SD rats were randomly divided into 3 groups and 0.4 mL of nitroglycerin (dosage: 10 mg/kg) was injected into the forehead to establish the migraine model. […] For blood sampling, 0.3 mL of blood was taken from the rat orbit prior to drug administration and 0, 5, 15, 30, and 45 min and 1, 2, 4, 6, 8, 10, 12, and 24 h after administration. These blood samples were collected into EP tubes coated with heparin sodium. After centrifugation at 4000 rmp for 10 min, supernatants were collected and stored at −80°C.
The mixture was vortexed for 3 min and centrifuged for 10 min at 13000 rpm. 200 μL of supernatants was collected for LC/MS analysis. For GAS and PA assessments, 50 μL of geniposide (IS: 350 ng/mL) and 250 μL of methanol were added to 50 μL of the plasma sample. The mixture was vortexed for 3 min and centrifuged for 10 min at 13000 rpm. 200 μL of supernatants was collected into centrifuge tubes, dried in nitrogen, and dissolved in 200 μL of 5% acetonitrile solution (95 : 5, v : v).
For pharmacokinetic studies, the AB Sciex Triple Quad™ 4500 was used for detection. […] A flow rate of 0.5 mL/min was used with an injection volume of 2 μL. The gradient elution was 0.0–1.2 min, 5% B; 1.2–6.0 min, 5–35% B; 6.0–8.5 min, 35–95% B; 8.5–9.0 min, 5% B; and 9.0–10.0 min, 5% B. Under mass spectrometry conditions, the ESI positive ion mode with multiple reaction monitoring (MRM) was used for detection using the following parameters: ion source temperature = 550°C; ion spray voltage = 4500 V; curtain gas (nitrogen) = 25 psi; atomizing gas (GS 1) = 50 psi; auxiliary gas (GS 2) = 50 psi. […] The IS was pyrrolidone hydrochloride, m/z 357.1–134.1 (DP: 85 V; CE: 35 eV). For GAS and PA, the column temperature was controlled at 40°C; phase A was 0.1% aqueous formic acid, and phase B was acetonitrile; flow rate was 0.5 mL/min; injection volume was 2 μL. The gradient elution was as follows: 0.0–1.2 min, 5% B; 1.2–8.0 min, 5–95% B; 8.0–9.0 min, 95–5% B; 9.0–10.0 min, 5% B; […]. For mass spectrometry, the ESI negative ion mode with MRM mode detection was employed. Mass spectrometry parameters were as follows: ion source temperature = 550°C; ion spray voltage = −4500 V; curtain gas (nitrogen) = 25 psi; atomizing gas (GS 1) = 50 psi; auxiliary gas (GS 2) = 50 psi. Ion pairs were as follows: GAS, m/z 331.1–123.0 (DP: −60 V; CE: −20 V); PA, m/z 995.1–726.9 (DP: −165 V; CE: −39 V). The IS was geniposide, m/z 433.0–225 (DP: −165 V; CE: −20 eV).
DAS 3.2.8 software was used to analyze the plasma concentrations in the different groups across all experimental time points. Time-concentration curves were drawn using Sigma Plot 10.0. For lipidomics, raw data were converted to the common (mzData) format using Agilent MassHunter Qualitative Analysis B.08.00 software (Agilent Technologies, USA). In the R software platform, the XCMS program was used to assess peak identification times, retention time correction, and automatic integration pretreatments. Data were subjected to IS and weight normalization. Visualization matrices containing the sample name, m/z-RT pair, and peak area were obtained. […] After editing, data matrices were imported into SIMCA-P 13.0 (Umetrics, Umea, Sweden), mean-centered, and scaled to Pareto variance. Multivariate analysis was then conducted.

[1] = Combine: PI coadministered (ISO 40 mg/kg, PA 372.4 mg/kg) intragastric, migraine model rats, plasma
[2] = PI coadministration versus single administration, migraine model rats
[3] = Single: ISO alone 40 mg/kg intragastric, migraine model rats, plasma
[4] = Single: PA alone 372.4 mg/kg intragastric, migraine model rats, plasma
[5] = rat, in vivo, Single: PA alone 372.4 mg/kg intragastric, migraine model rats, plasma

CC[C@H]1CN2CC[C@]3(C(=O)Nc4ccccc43)[C@@H]2C[C@@H]1/C(=C\OC)C(=O)OC [RHY, rhynchophylline]
AUC (0 − t) [1]: 412.82 μg/L ∗ h
AUC (0 − ∞) [1]: 455.57 μg/L ∗ h
C-max [1]: 94.10 µg/L
T-max [1]: 0.96 h
AUC, coadministration higher than the administration-alone group [2]: 1.44 fold
half-life (t1/2z), coadministration higher than the administration-alone group [2]: 3.46 fold
AUC (0 − t) [3]: 313.95 μg/L ∗ h
AUC (0 − ∞) [3]: 314.00 μg/L ∗ h
C-max [3]: 88.35 µg/L
T-max [3]: 0.63 h
CL/F (rat, in vivo, 40 mg/kg): 5530 mL/min/kg
MRT last (rat, in vivo, 40 mg/kg): 3.21 h
MRT inf (rat, in vivo, 40 mg/kg): 3.21 h
Vd/F (rat, in vivo, 40 mg/kg): 663 L/kg
half-life (rat, in vivo, 40 mg/kg): 1.63 h
clearance rate (CL z/F), administration-alone group higher than the coadministration group (migraine model rats): 3.16 fold

OCc1ccc(O[C@@H]2O[C@H](CO)[C@@H](O)[C@H](O)[C@H]2O)cc1 [GAS, gastrodin]
AUC (0 − t) [1]: 12757.67 μg/L ∗ h
AUC (0 − ∞) [1]: 13028.09 μg/L ∗ h
C-max [1]: 3853.50 µg/L
T-max [1]: 1.08 h
AUC, coadministration higher than the administration-alone group [2]: 1.31 fold
MRT, coadministration higher than the single-administration group [2]: 1.84 fold
half-life (t1/2z), coadministration higher than the administration-alone group [2]: 2.79 fold
AUC (0 − t) [4]: 9934.28 μg/L ∗ h
AUC (0 − ∞) [4]: 9935.51 μg/L ∗ h
C-max [4]: 4082.17 µg/L
T-max [4]: 0.83 h
CL/F [5]: 640 mL/min/kg
MRT last [5]: 2.14 h
MRT inf [5]: 2.15 h
Vd/F [5]: 56.6 L/kg
half-life [5]: 1.02 h

CC[C@H]1CN2CC[C@@]3(C(=O)Nc4ccccc43)[C@@H]2C[C@@H]1/C(=C\OC)C(=O)OC [ISO, isorhynchophylline]
AUC (0 − t) [1]: 1755.85 μg/L ∗ h
AUC (0 − ∞) [1]: 1768.51 μg/L ∗ h
C-max [1]: 867.07 µg/L
T-max [1]: 0.58 h
AUC, coadministration higher than the administration-alone group [2]: 1.31 fold
half-life (t1/2z), coadministration higher than the administration-alone group [2]: 1.99 fold
AUC (0 − t) [3]: 1340.01 μg/L ∗ h
AUC (0 − ∞) [3]: 1340.09 μg/L ∗ h
C-max [3]: 645.28 µg/L
T-max [3]: 0.54 h
CL/F (rat, in vivo, 40 mg/kg): 1480 mL/min/kg
MRT last (rat, in vivo, 40 mg/kg): 1.76 h
MRT inf (rat, in vivo, 40 mg/kg): 1.77 h
Vd/F (rat, in vivo, 40 mg/kg): 242 L/kg
half-life (rat, in vivo, 40 mg/kg): 1.9 h
clearance rate (CL z/F), administration-alone group higher than the coadministration group (migraine model rats): 3.15 fold

O=C(CC(O)(CC(=O)OCc1ccc(O[C@@H]2O[C@H](CO)[C@@H](O)[C@H](O)[C@H]2O)cc1)C(=O)OCc1ccc(O[C@@H]2O[C@H](CO)[C@@H](O)[C@H](O)[C@H]2O)cc1)OCc1ccc(O[C@@H]2O[C@H](CO)[C@@H](O)[C@H](O)[C@H]2O)cc1 [PA, parishin A]
stability in plasma (rat, in vivo): unstable
stability in rats (rat, in vivo): unstable
